Active and inactive are the calls of the source. No rule for the calls is given here.
Tested on: CCRIS mutagenicity, Ames/micronucleus/aberration tests
Assay: CCRIS mutagenicity studies
[1] = Test System: AMES SALMONELLA TYPHIMURIUM, Strain/Indicator: TA100, Metabolic Activation: NONE, Method: STANDARD PLATE
[2] = Test System: AMES SALMONELLA TYPHIMURIUM, Strain/Indicator: TA1535, Metabolic Activation: NONE, Method: STANDARD PLATE
[3] = Test System: MOUSE LYMPHOMA, Strain/Indicator: L5178Y (TK+/TK-), Metabolic Activation: NONE, Method: SUSPENSION/PLATE
[4] = Test System: AMES SALMONELLA TYPHIMURIUM, Strain/Indicator: TA98, Metabolic Activation: NONE, Method: STANDARD PLATE
[5] = Test System: AMES SALMONELLA TYPHIMURIUM, Strain/Indicator: TA98, Metabolic Activation: RAT, LIVER, S-9, AROCLOR 1254, Method: STANDARD PLATE

Measured: mutagenic call

Nc1ccc(O)c2c1C(=O)C=CC2=O
inactive: Test System: Ames Salmonella typhimurium, Strain/Indicator: TA97, Metabolic Activation: None, Method: Preincubation inactive; negative | Test System: Ames Salmonella typhimurium, Strain/Indicator: TA97, Metabolic Activation: Rat, Liver, S9, Aroclor 1254, Method: Preincubation inactive; negative | Test System: Ames Salmonella typhimurium, Strain/Indicator: TA100, Metabolic Activation: None, Method: Preincubation inactive; negative | Test System: Ames Salmonella typhimurium, Strain/Indicator: TA100, Metabolic Activation: Rat, Liver, S9, Aroclor 1254, Method: Preincubation inactive; negative | Test System: Ames Salmonella typhimurium, Strain/Indicator: TA102, Metabolic Activation: None, Method: Preincubation inactive; negative
active: Test System: Ames Salmonella typhimurium, Strain/Indicator: TA98, Metabolic Activation: None, Method: Preincubation active; positive | Test System: Ames Salmonella typhimurium, Strain/Indicator: TA98, Metabolic Activation: Rat, Liver, S9, Aroclor 1254, Method: Preincubation active; positive | Test System: Ames Salmonella typhimurium, Strain/Indicator: TA102, Metabolic Activation: Rat, Liver, S9, Aroclor 1254, Method: Preincubation active; positive

OC1=C2O[C@@H]2CC[C@H]1O
active: Test System: CHINESE HAMSTER V-79, Strain/Indicator: V-79/6-THIOGUANINE, Metabolic Activation: NONE active; positive

COC(=O)[C@H](C)Cl
inactive: Test System: AMES SALMONELLA TYPHIMURIUM, Strain/Indicator: TA100, Metabolic Activation: NONE, Method: PREINCUBATION inactive; negative | Test System: AMES SALMONELLA TYPHIMURIUM, Strain/Indicator: TA100, Metabolic Activation: RAT, LIVER, S-9, PCB, Method: PREINCUBATION inactive; negative

CN(C)C(=O)Cl
active: [1] active; positive | [2] active; positive | [3] active; positive | Test System: MOUSE LYMPHOMA, Strain/Indicator: L5178Y (TK+/TK-), Metabolic Activation: RAT, LIVER, S-9, AROCLOR 1254, Method: SUSPENSION/PLATE active; positive
inactive: Test System: E. COLI, Strain/Indicator: WP2 UVRA, Metabolic Activation: HAMSTER, LIVER, S-9, AROCLOR 1254, Method: PREINCUBATION inactive; negative | Test System: E. COLI, Strain/Indicator: WP2 UVRA, Metabolic Activation: HAMSTER, LIVER, S-9, AROCLOR 1254, Method: STANDARD PLATE inactive; negative | Test System: E. COLI, Strain/Indicator: WP2 UVRA, Metabolic Activation: HAMSTER, LIVER, S-9, Method: STANDARD PLATE inactive; negative | Test System: E. COLI, Strain/Indicator: WP2 UVRA, Metabolic Activation: MOUSE, LIVER, S-9, AROCLOR 1254, Method: PREINCUBATION inactive; negative | Test System: E. COLI, Strain/Indicator: WP2 UVRA, Metabolic Activation: MOUSE, LIVER, S-9, AROCLOR 1254, Method: STANDARD PLATE inactive; negative | Test System: E. COLI, Strain/Indicator: WP2 UVRA, Metabolic Activation: MOUSE, LIVER, S-9, Method: PREINCUBATION inactive; negative | Test System: E. COLI, Strain/Indicator: WP2 UVRA, Metabolic Activation: MOUSE, LIVER, S-9, Method: STANDARD PLATE inactive; negative | Test System: E. COLI, Strain/Indicator: WP2 UVRA, Metabolic Activation: NONE, Method: STANDARD PLATE inactive; negative | Test System: E. COLI, Strain/Indicator: WP2 UVRA, Metabolic Activation: RAT, LIVER, S-9, AROCLOR 1254, Method: STANDARD PLATE inactive; negative | Test System: E. COLI, Strain/Indicator: WP2 UVRA, Metabolic Activation: RAT, LIVER, S-9, Method: STANDARD PLATE inactive; negative

O=[N+]([O-])c1c2c(cc3ccccc13)[C@@H](O)[C@H](O)C=C2
inactive: [1] inactive; negative | Test System: AMES SALMONELLA TYPHIMURIUM, Strain/Indicator: TA100, Metabolic Activation: RAT, LIVER, S-9, Method: STANDARD PLATE inactive; negative
active: [4] active; positive | Test System: AMES SALMONELLA TYPHIMURIUM, Strain/Indicator: TA98, Metabolic Activation: RAT, LIVER, S-9, Method: STANDARD PLATE active; positive

CCN(CC)CCNc1ccc(C)c2sc3ccccc3c(=O)c12
active: Test System: AMES SALMONELLA TYPHIMURIUM, Strain/Indicator: TA1535, Metabolic Activation: RAT, LIVER, S-9, AROCLOR 1254 OR PHENOBARBITOL, Method: STANDARD PLATE active; positive | Test System: AMES SALMONELLA TYPHIMURIUM, Strain/Indicator: TA1537, Metabolic Activation: NONE, Method: STANDARD PLATE active; positive | Test System: AMES SALMONELLA TYPHIMURIUM, Strain/Indicator: TA1537, Metabolic Activation: RAT, LIVER, S-9, AROCLOR 1254 OR PHENOBARBITOL, Method: STANDARD PLATE active; positive | [3] active; positive
inactive: [4] inactive; negative | Test System: AMES SALMONELLA TYPHIMURIUM, Strain/Indicator: TA98, Metabolic Activation: RAT, LIVER, S-9, AROCLOR 1254 OR PHENOBARBITOL, Method: STANDARD PLATE inactive; negative | [1] inactive; negative | Test System: AMES SALMONELLA TYPHIMURIUM, Strain/Indicator: TA100, Metabolic Activation: RAT, LIVER, S-9, AROCLOR 1254 OR PHENOBARBITOL, Method: STANDARD PLATE inactive; negative | [2] inactive; negative | Test System: AMES SALMONELLA TYPHIMURIUM, Strain/Indicator: TA1538, Metabolic Activation: NONE, Method: STANDARD PLATE inactive; negative | Test System: AMES SALMONELLA TYPHIMURIUM, Strain/Indicator: TA1538, Metabolic Activation: RAT, LIVER, S-9, AROCLOR 1254 OR PHENOBARBITOL, Method: STANDARD PLATE inactive; negative

OCc1ccc(C(F)(F)F)cc1
inactive: [1] inactive; negative

CC=C(C)C(=O)O[C@H]1[C@H](OC(C)=O)[C@]2(CO)[C@H](O)C[C@]3(C)C(=CC[C@@H]4[C@@]5(C)CC[C@@H](O[C@@H]6O[C@H](C(=O)O)[C@@H](O[C@@H]7O[C@H](CO)[C@@H](O)[C@H](O)[C@H]7O)[C@H](O)[C@H]6O[C@@H]6O[C@H](CO)[C@@H](O)[C@H](O)[C@H]6O)[C@](C)(CO)[C@@H]5CC[C@]43C)[C@@H]2CC1(C)C
inactive: Test System: AMES SALMONELLA TYPHIMURIUM, Strain/Indicator: TA97, Metabolic Activation: NONE, Method: STANDARD PLATE inactive; negative | Test System: AMES SALMONELLA TYPHIMURIUM, Strain/Indicator: TA97, Metabolic Activation: RAT, LIVER, S-9, AROCLOR 1254, Method: STANDARD PLATE inactive; negative | [4] inactive; negative | [5] inactive; negative | [1] inactive; negative | Test System: AMES SALMONELLA TYPHIMURIUM, Strain/Indicator: TA100, Metabolic Activation: RAT, LIVER, S-9, AROCLOR 1254, Method: STANDARD PLATE inactive; negative | Test System: AMES SALMONELLA TYPHIMURIUM, Strain/Indicator: TA102, Metabolic Activation: NONE, Method: STANDARD PLATE inactive; negative | Test System: AMES SALMONELLA TYPHIMURIUM, Strain/Indicator: TA102, Metabolic Activation: RAT, LIVER, S-9, AROCLOR 1254, Method: STANDARD PLATE inactive; negative

CC(=O)Nc1ccc2ccc3c(O)ccc4ccc1c2c43
inactive: Test System: AMES SALMONELLA TYPHIMURIUM, Strain/Indicator: TA98(1,8-DNP6), Metabolic Activation: NONE, Method: STANDARD PLATE inactive; negative | Test System: AMES SALMONELLA TYPHIMURIUM, Strain/Indicator: TA98(1,8-DNP6), Metabolic Activation: RAT, LIVER, S-9, AROCLOR 1254, Method: STANDARD PLATE inactive; negative | Test System: AMES SALMONELLA TYPHIMURIUM, Strain/Indicator: YG1024, Metabolic Activation: NONE, Method: STANDARD PLATE inactive; negative
active: [5] active; positive | Test System: AMES SALMONELLA TYPHIMURIUM, Strain/Indicator: YG1024, Metabolic Activation: RAT, LIVER, S-9, AROCLOR 1254, Method: STANDARD PLATE active; positive
